According to US20060079453A1, “Hla binding peptides and their uses” (priority 2002, published 2006):
Like-named read-outs stand apart in the source and are kept apart here. No end group written: not given here.

Legend:
[1] = biological target: HLA-A*2301 (Homo sapiens, UniProt P04439, D101N/D140Y/D185E/E176V/E190D/F33S/G103R/G107R/H175R/I119L/I121M/I306V/K168Q/K335N/L105A/L300P/N151K/N90K/P307H/Q86E/Q94H/R106L/R138H/R89G/T104I/T345S/V100E/W191G/Y123F); assay: biochemical; format: binding
[2] = biological target: HLA-A*3002 (Homo sapiens, UniProt P04439, D101N/D140H/D185E/E176R/F33S/G80R/H175R/K168Q/Q94H/R138E/R41S/V100E); assay: biochemical; format: binding
[3] = biological target: HLA-A*2902 (Homo sapiens, UniProt P04439, A270S/D101N/D185E/E176V/E277Q/E87Q/F33T/G231S/H175R/I121M/I218V/I322F/K168Q/L300P/L318F/M331R/P208A/P217A/Q86L/T323A/T345S/V100A/V358M); assay: MHC molecular binding / Capture assay, IC50: A*2902
[4] = biological target: HLA-A*0206 (Homo sapiens, UniProt P04439, D140Y/D185E/D98H/E176V/E277Q/F33Y/G131W/G231S/I119V/I121R/I166T/I218V/L300P/L318F/N151K/N90K/P208A/P217A/Q86G/Q94H/R138H/R169H/T345S); assay: biochemical; format: binding
[5] = biological target: HLA-A*0201 (Homo sapiens, UniProt P04439, D140Y/D185E/D98H/E176V/E277Q/G131W/G231S/I119V/I121R/I166T/I218V/L300P/L318F/N151K/N90K/P208A/P217A/Q86G/Q94H/R138H/R169H/T345S); assay: biochemical; format: binding
[6] = biological target: HLA-A*6802 (Homo sapiens, UniProt P04439, A269V/D140Y/D185E/E176V/E277Q/E87N/F33Y/G231S/I121R/I166T/I218V/L180W/L300P/L318F/N151K/P208A/P217A/Q86R/R138H/R169H/S129P/T345S/V36M); assay: biochemical; format: binding
[7] = biological target: HLA-A*0203 (Homo sapiens, UniProt P04439, A173T/D140Y/D185E/D98H/E277Q/G131W/G231S/I119V/I121R/I166T/I218V/L180W/L300P/L318F/N151K/N90K/P208A/P217A/Q86G/Q94H/R138H/R169H/T345S); assay: biochemical; format: binding
[8] = biological target: HLA-A*0202 (Homo sapiens, UniProt P04439, D140Y/D185E/D98H/E176V/E277Q/G131W/G231S/I119L/I121R/I166T/I218V/L180W/L300P/L318F/N151K/N90K/P208A/P217A/Q67R/Q86G/Q94H/R138H/R169H/T345S); assay: biochemical; format: binding
[9] = A*0206 binding affinity (expressed as an IC50)
[10] = A*0201 binding affinity (expressed as an IC50)
[11] = A*6802 binding affinity (expressed as an IC50)
[12] = A*0203 binding affinity (expressed as an IC50)
[13] = A*0202 binding affinity (expressed as an IC50)

## RVLPPNWKY
[1]
  IC50: > 49000 nM
[2]
  IC50: 3 nM

## VFNVVNSSI
[3]; A*2902 binding affinity (IC50)
  IC50: 24000 nM
[1]
  IC50: 35 nM

## KTKDIVNGL
[1]
  IC50: > 49000 nM
[2]; A*3002 binding affinity (IC50)
  IC50: 164 nM

## LFLSTLSF
[1]
  IC50: 160 nM
[2]; A*3002 binding affinity (IC50)
  IC50: > 75000 nM

## TYSGPGPGLF
[3]; A*2902 binding affinity (IC50)
  IC50: 7730 nM
[1]
  IC50: 92 nM

## CC(C)C[C@H](NC(=O)[C@@H](N)CO)C(=O)N[C@@H](Cc1ccccc1)C(=O)N[C@H](C(=O)N[C@@H](CO)C(=O)N[C@@H](CC(N)=O)C(=O)N[C@@H](Cc1c[nH]cn1)C(=O)N[C@@H](C)C(=O)N[C@@H](Cc1ccc(O)cc1)C(=O)O)C(C)C
[1]
  IC50: 30300 nM
[2]
  IC50: 1.1 nM

## CC[C@H](C)[C@H](N)C(=O)N[C@@H](CCSC)C(=O)N[C@H](C(=O)N[C@@H](CC(C)C)C(=O)N[C@@H](CO)C(=O)N[C@@H](Cc1ccccc1)C(=O)N[C@@H](CC(C)C)C(=O)N[C@@H](Cc1ccccc1)C(=O)O)C(C)C
[1]
  IC50: 7.5 nM
[2]
  IC50: 30000 nM

## RYQDPQNYEL
[1]
  IC50: 124 nM

## VYHTQGYFPDF
[1]
  IC50: 68 nM
[2]
  IC50: > 22600 nM

## AYSSWMYSY
[1]
  IC50: 21 nM
[2]; Binding affinity to A*3002 (expressed as an IC50)
  IC50: 4.9 nM

## TYCCKCDSTL
[1]; read-out: A*2301 binding affinity (IC50)
  IC50: 30 nM

## YTPGPGIRYPV
[4]; [9]
  IC50: 1110 nM
[5]; [10]
  IC50: 7760 nM
[6]; [11]
  IC50: 9.2 nM
[7]; [12]
  IC50: 11100 nM
[8]; [13]
  IC50: 1990 nM

## MTSNPPIPV
[4]; [9]
  IC50: 250 nM
[5]; [10]
  IC50: 53 nM
[6]; [11]
  IC50: 3.8 nM
[7]; [12]
  IC50: 0.39 nM
[8]; [13]
  IC50: 16 nM

## KLTPFCVTL
[4]
  IC50: 78 nM
[5]
  IC50: 87 nM
[6]
  IC50: 11800 nM
[7]
  IC50: 28 nM
[8]
  IC50: 0.37 nM

## FLPSGPGPGV
[4]; [9]
  IC50: 64 nM
[5]; [10]
  IC50: 21 nM
[6]; [11]
  IC50: 40 nM
[7]; [12]
  IC50: 3.4 nM
[8]; [13]
  IC50: 1.2 nM

## MYVGGPGPGVF
[3]; Binding affinity to A*2902 (expressed as an IC50)
  IC50: 89 nM
[1]
  IC50: 85 nM

## MYVGPGPGSVF
[1]
  IC50: 4.4 nM
[2]; A*3002 binding affinity (IC50)
  IC50: 28200 nM

## SLLGPGPGAV
[4]; [9]
  IC50: 642 nM
[5]; [10]
  IC50: 95 nM
[6]; [11]
  IC50: 795 nM
[7]; [12]
  IC50: 2.6 nM
[8]; [13]
  IC50: 17 nM

## FLPGPGPGSV
[4]; [9]
  IC50: 665 nM
[5]; [10]
  IC50: 98 nM
[6]; [11]
  IC50: 332 nM
[7]; [12]
  IC50: 4 nM
[8]; [13]
  IC50: 18 nM

## TYSVSFDSLF
[1]
  IC50: 12 nM
[2]; A*3002 binding affinity (IC50)
  IC50: 5220 nM

## TYGPGPGSLF
[3]; A*2902 binding affinity (IC50)
  IC50: 7230 nM
[1]
  IC50: 8.7 nM

## GLIYSKKRQEV
[4]
  IC50: > 8560 nM
[5]
  IC50: 8970 nM
[6]
  IC50: > 14300 nM
[7]
  IC50: 152 nM
[8]
  IC50: 57 nM

## ILAEAMSQA
[4]
  IC50: 8.6 nM
[5]
  IC50: 29 nM
[6]
  IC50: 253 nM
[7]
  IC50: 1.1 nM
[8]
  IC50: 1 nM

## VLAEAMSKV
[4]; [9]
  IC50: 93 nM
[5]; [10]
  IC50: 230 nM
[6]; [11]
  IC50: 329 nM
[7]; [12]
  IC50: 1.4 nM
[8]; [13]
  IC50: 1.8 nM

## ATYGIIVPV
[4]; [9]
  IC50: 5 nM
[5]; [10]
  IC50: 3.2 nM
[6]; [11]
  IC50: 21 nM
[7]; [12]
  IC50: 2.8 nM
[8]; [13]
  IC50: 2 nM

## QLVGPGPGMEV
[4]; [9]
  IC50: 919 nM
[5]; [10]
  IC50: 865 nM
[6]; [11]
  IC50: 223 nM
[7]; [12]
  IC50: 19 nM
[8]; [13]
  IC50: 17 nM

## MLLSVPLLL
[4]; [9]
  IC50: 8.4 nM
[5]; [10]
  IC50: 9 nM
[6]; [11]
  IC50: 24600 nM
[7]; [12]
  IC50: 41 nM
[8]; [13]
  IC50: 79 nM

## RTLHDLCQA
[4]; [9]
  IC50: 96 nM
[5]; [10]
  IC50: 8120 nM
[6]; [11]
  IC50: 61600 nM
[7]; [12]
  IC50: 678 nM
[8]; [13]
  IC50: 34 nM

## FMGVIYIMI
[4]; [9]
  IC50: 98 nM
[5]; [10]
  IC50: 13 nM
[6]; [11]
  IC50: 14500 nM
[7]; [12]
  IC50: 26 nM
[8]; [13]
  IC50: 2.1 nM

## CC(C)C[C@H](NC(=O)[C@@H](N)CCCNC(=N)N)C(=O)N[C@@H](C)C(=O)N[C@@H](Cc1c[nH]cn1)C(=O)N[C@@H](CCC(=O)O)C(=O)N[C@H](C(=O)NCC(=O)N[C@@H](Cc1c[nH]c2ccccc12)C(=O)N[C@@H](CCCCN)C(=O)N[C@@H](Cc1ccc(O)cc1)C(=O)O)C(C)C
[1]
  IC50: 4630 nM
[2]
  IC50: 3.8 nM

## PVPLQLPPV
[4]
  IC50: 81 nM
[5]
  IC50: 10000 nM
[6]
  IC50: > 15600 nM
[7]
  IC50: 12600 nM
[8]
  IC50: > 7340 nM

## VLAEAMSRA
[4]
  IC50: 20 nM
[5]
  IC50: 127 nM
[6]
  IC50: 229 nM
[7]
  IC50: 1 nM
[8]
  IC50: 0.88 nM

## VVQAGFFLV
[4]; [9]
  IC50: 81 nM
[5]; [10]
  IC50: 440 nM
[6]; [11]
  IC50: 617 nM
[7]; [12]
  IC50: 2500 nM
[8]; [13]
  IC50: 79 nM

## YLLTLWKAGI
[4]
  IC50: 40 nM
[5]
  IC50: 20 nM
[6]
  IC50: 1390 nM
[7]
  IC50: 20 nM
[8]
  IC50: 19 nM

## FYSKVSEF
[1]
  IC50: 18 nM
[2]; A*3002 binding affinity (IC50)
  IC50: 66700 nM

## DFFLKSKFNI
[1]
  IC50: 304 nM

## LLLPPLERLTL
[4]
  IC50: 45 nM
[5]
  IC50: 34 nM
[6]
  IC50: > 12800 nM
[7]
  IC50: 9010 nM
[8]
  IC50: 2610 nM

## TYLPGPGPGSF
[3]; A*2902 binding affinity (IC50)
  IC50: 56200 nM
[1]
  IC50: 2.2 nM

## LIFHFFLFLL
[4]; [9]
  IC50: 1560 nM
[5]; [10]
  IC50: 200 nM
[6]; [11]
  IC50: 460 nM
[7]; [12]
  IC50: 3170 nM
[8]; [13]
  IC50: 1470 nM

## LLWQPIPV
[4]; [9]
  IC50: 4250 nM
[5]; [10]
  IC50: 137 nM
[6]; [11]
  IC50: 32900 nM
[7]; [12]
  IC50: 9.9 nM
[8]; [13]
  IC50: 2440 nM

## KISAVVGIL
[4]; [9]
  IC50: 1750 nM
[5]; [10]
  IC50: 6240 nM
[6]; [11]
  IC50: 4950 nM
[7]; [12]
  IC50: 60 nM
[8]; [13]
  IC50: 42 nM

## VLAGPGPGVTL
[4]; [9]
  IC50: 7200 nM
[5]; [10]
  IC50: 1120 nM
[6]; [11]
  IC50: 2640 nM
[7]; [12]
  IC50: 94 nM
[8]; [13]
  IC50: 2.4 nM

## QLFEDKYAL [QLFEDKYAL]
[4]; [9]
  IC50: 2010 nM
[5]; [10]
  IC50: 646 nM
[6]; [11]
  IC50: 2980 nM
[7]; [12]
  IC50: 380 nM
[8]; [13]
  IC50: 1.8 nM
